Results taken from patent publication EP2774915A1, “New derivatives of resveratrol” (Mattarei, Andrea, priority 2013, dated 2014).
Read-outs that look alike come from different tables or passages of the source.

Tests used:
[1] = pH 5
Description: (§1) Solubility in aqueous media. A calibration curve is constructed via HPLC analysis of a series of solutions of the compound of interest at known concentrations in a suitable solvent. A known amount (excess) of solid compound is placed in a 20-mL vial to which a 5 mL aliquot of 1 mM acetate buffer at pH 5 is then added. The contents are stirred at 25°C for 24 hours. After a 4-hour decantation period, 1 mL of the supernatant is filtered through a PTFE 0.45 µm filter, diluted with 2 v/v of acetonitrile and analyzed by HPLC. The entire procedure is repeated twice with the same sample, at 24-hour intervals, to verify the invariance of the result.

[2] = Solubility in aqueous media (excess solid stirred in buffer, HPLC of filtered supernatant); conditions: 1 mM acetate buffer at pH 5, 25°C, 24 hours stirring
Description: as §1

[3] = Stability to oxidation: reaction with DPPH radical, absorbance at 520 nm; assay type: physicochemical; conditions: 20 nmoles of DPPH in methanol, absorbance at 520 nm after 40 min (Fig. 5)
Description: At time zero, 20 nmoles of DPPH and the specified amount of resveratrol or of its derivative were mixed in methanol. Absorbance was measured after 40 min.
The susceptibility to oxidation can be assessed by studying c) the reaction with the 1,1-diphenyl-2-picrylhydrazyl (DPPH) radical.
DPPH is a stable free radical with an absorbance maximum at 520 nm (purple). Upon reaction with polyphenols it is converted to DPPHH (yellow) and this change of colour is an indication of the extent of the reaction which has taken place. The assays were conducted using 96-well plates following Fukumoto and Mazza (2000), measuring absorbance with a Tecan Infinite 200 plate reader.

Solubility in water [1] | SMILES | reaction with DPPH [3] | other results
below detection limit | O=C(NC(Cc1ccccc1)C(=O)O)Oc1ccc(C=Cc2cc(OC(=O)NC(Cc3ccccc3)C(=O)O)cc(OC(=O)NC(Cc3ccccc3)C(=O)O)c2)cc1 (centres unmarked) [Resv(HOPhe-C)3, 3,4',5-tri-[N-(phenylalanyl)-carbamoyl]-resveratrol] |  | 
 | CNC(=O)Oc1ccc(C=Cc2cc(OC(=O)NC)cc(OC(=O)NC)c2)cc1 [Resv(Me-C)3, 3,4',5-tri-[N-methyl-carbamoyl]-resveratrol] |  | Solubility in water [2]: below detection limit
below detection limit | CCCCCCCCC=CCCCCCCCCNC(=O)Oc1ccc(C=Cc2cc(OC(=O)NCCCCCCCCC=CCCCCCCCC)cc(OC(=O)NCCCCCCCCC=CCCCCCCCC)c2)cc1 [Resv(Oleyl-C)3, 3,4',5-tri-[N-(octadec-9-enyl)-carbamoyl]-resveratrol] |  | 
 | COCCOCCOCCNC(=O)Oc1ccc(C=Cc2cc(OC(=O)NCCOCCOCCOC)cc(OC(=O)NCCOCCOCCOC)c2)cc1 [Resv(TGME-C)3, 3,4',5-tri-[N-methoxytri-(ethyleneglycol)-carbamoyl] resveratrol] | does not react at all with DPPH | 
 | Oc1ccc(C=Cc2cc(O)cc(O)c2)cc1 [resveratrol] | stoichiometric oxidation | 
